The results in this text go back to patent US9409906B2, “Pyrimido[4,5-B]indole derivatives and use thereof in the expansion of hematopoietic stem cells” (UNIVERSITÉ DE MONTRÉAL, priority 2012, dated 2016).

“Also recorded” adds a separate entry of the source.

For series [1], the system named is AhR-responsive genes (CYP1B1 and AhRR). Kind of series: Real-time quantitative RT-PCR for AhR-responsive genes (FIG. 1). Type of series: cell-based, human. The settings on record: mPB CD34(+) cells, 12 hours, Compound 1 500 nM. The procedure:
Mobilized peripheral blood CD34(+) cells were cultured for 12 hours with DMSO, SR1 [AhR antagonist 1000 nM], and Compound 1 [500 nM], cells were harvested and real-time quantitative RT-PCR for AhR-responsive genes (CYP1B1 and AhRR) was performed.

The subject of series [2] is CD34+ CB cells transplanted in NSG mice. The series is described as follows: Engraftment of cultured CD34+ cord blood cells in NSG mice (FIG. 7). The settings on record: outcome of 5,000 CD34+ CB cells, 7 days culture, 8-weeks post transplantation (FIG. 7A).
Text: These experiments were done in short term cultures i.e. 7 days.
Series [3] relates to Mobilized peripheral blood CD34(+) cells. Kind of series: Growth factor (Flt3, SCF, TPO) requirement / mitogen test (FIG. 3). Type of series: cell-based, human. On the procedure:
FIG. 3: Flt3, SCF, and TPO are required for compound 1 mediated stem cell expansion. Mobilized peripheral blood CD34(+) cells were cultured for 7 days in the presence or absence of the growth factors (Flt3+SCF+TPO).
This indicate that akin to SR1, Compound 1's effect on maintenance of primitive HSC phenotype ex vivo is not due to a mitogenic effect on this population but rather on the prevention of cell differentiation.

Series [4] has as its system CD34+ mobilized peripheral blood cells. Kind of series: FACS analysis of differentiation of CD34+ mobilized peripheral blood cells (FIG. 4A). Format: cell-based, human. The source says: FIG. 4A illustrates the impact of Compound 1 on mobilized peripheral blood cell differentiation. Following a 7 day expansion, a relatively pure (>85% CD34^+) population of mobilized peripheral blood was exposed to control the (DMSO) or Compound 1 or SR1 or Compound 1+SR1.

Series [5] relates to CD34+ mPB cells transplanted in NSG mice. The series is described as follows: Engraftment of cultured CD34+ mPB cells in NSG mice.
In series [6] the test system is primary human mobilized CD34+ cells. Kind of series: High throughput screening assay on primary human mobilized CD34+ cells, with secondary screen. Format: cell-based. The source says: To identify novel putative agonists of HSC self-renewal, we have adapted a high throughput based-screening assay to test a library of small molecule compounds (5,280 low molecular weight compounds) on primary human mobilized CD34+ cells. It is to be understood that the same approach applies to CD34+ cells from the various sources known by a person skilled in the art to isolate CD34+ cells. Mononuclear cells were stained with Mouse antihuman CD34+APC (from BD Pharmingen) and subsequently magnetically labeled with Anti-APC magnetic MicroBeads (from MACS, Miltenyi Biotec). The magnetically labeled cells were retained using AutoMACS column. […]
In a 384-well plate, 2000 CD34^+ cells/well were cultured in 50 μl medium containing 1 μM of test compounds or 0.1% DMSO (vehicle). The proportion of CD34^+CD45RA^− cells was determined at the start of the experiment and after a 7-day incubation. Six out of the 5,280 compounds of different chemical backgrounds initially tested promoted CD34+CD45RA− cell expansion, and seventeen (17) enhanced differentiation as determined by the increase in proportions of CD34−CD45RA+ cells compared to control (DMSO). The six compounds promoting expansion of the CD34+CD45RA− cell population were re-analyzed in a secondary screen. […]

In series [7] the test system is CD34+ mPB cells. The series is described as follows: Colony-forming units in culture (CFU-C) assay in methylcellulose. Type of series: cell-based, human. The settings on record: 1000 CD34+ mPB cells treated for 10 days. The procedure:
The ex vivo functionality of expanded cells was tested using the conventional colony-forming units in culture (CFU-C) assay. Untreated cells or cells incubated with DMSO, positive control or a compound of the invention were plated in methylcellulose medium in conventional conditions. As an example, Compound 1 (Table 1, Example 1) expands the number of multipotent hematopoietic progenitors.

Series [8] relates to CD34+ cells from mobilized PB. Kind of series: Long term 10-day ex vivo culture of CD34+ cells from mobilized PB. Type of series: cell-based, human. The procedure:
The following biological assays were used to assess the effect of the compounds of the invention on hematopoietic stem cell expansion. Culture medium: The culture medium used consisted of serum-free medium supplemented with the following recombinant cytokines: interleukin-6, thrombopoietin, Flt-3 ligand, and stem cell factor, each at a final concentration of 100 ng/ml, in the presence of vehicle (DMSO), positive control (SR1), or compound of the invention or a combination of compounds. Cell Culture: CD34+ cell purity of initial harvests was higher than 90%, as determined by flow cytometry. The CD34+CD45RA− subpopulation reached purity levels higher than 70%. Cells were plated at 40,000 cells/ml and incubated for 7 to 12-days at 37° C. in 5% CO2. For long term cultures, 200,000 CD34+ cells/ml from mobilized PB were plated with serum free media supplemented with interleukin-6, thrombopoietin, Flt3 ligand, and stem cell factor, each at a final concentration of 100 ng/ml, in the presence of vehicle (DMSO), positive control, or a compound of the invention at 500 nM. After a 10-day ex vivo culture Compound 1 (Table 1) promoted more than 7-fold expansion of MNCs, more than 5-fold increase in CD34+ cells over input values (day 0), and almost 4-fold increase over the values determined for vehicle. After 10 days of ex vivo culture, Compound 1-treated cells retained a high level of CD34 expression (65.8±5.5%) compared to cells cultured with vehicle (DMSO) (22.8±0.9%). Moreover, only Compound 1-treated cells retained the highest expression of CD34+CD45RA− population (24.8±0.9%) compared to that of vehicle (4.7±0.4%). The numbers of CD34+CD45RA− cultured with Compound 1 increased by almost 3-fold compared to that of vehicle and 7-fold more than that of input. Finally, the compounds of the invention were assayed in a dose-response format (concentrations ranging from 1 nM to 5000 nM) to determine the effective concentration that produced a 50% increase in the number of CD34+CD45RA− cells compared to vehicle condition.

[9] abbreviates: outcome of 2,000,000 and 500,000 cells cultured 10 days, 8 weeks post transplantation.

Regarding `COC(=O)c1ccc2c(c1)[nH]c1ncnc(NCCCN3CCCCC3)c12` [Compound 1, Methyl 4-((3-(piperidin-1-yl)propyl)amino)-9H-pyrimido[4,5-b]indole-7-carboxylate], the “suppression of AhR-downstream target genes (CYP1B1 and AhRR)” value in series [1] is listed as “does not suppress AhR-downstream target genes”. Further, the “human CD45+ engraftment / reconstitution activity” value in series [2] is listed as “clear effect on reconstitution activity”. Also, in series [2] (listed as compound 1), the “human CD45+ engraftment / reconstitution activity” value is on record as “human CD45+ engraftment”. Also, in series [3], the “induction of cell proliferation in the absence of growth factors (Flt3, TPO, SCF)” value is recorded as “not able to induce cell proliferation”. In series [3] (7 days, with or without Flt3+SCF+TPO), the “CD34+CD45RA− cell count in the absence of any of the growth factors” value is recorded as “lower”. In series [4] (7 day expansion, optimal levels, vs DMSO control), the “loss of CD34 cell surface expression” value is listed as “partly abrogated”. Further, the “differentiation of CD34+ mobilized peripheral blood cells” value in series [4] (FACS / cytological analysis) was “prevent cell differentiation; also recorded: reduces differentiation”. Besides, in series [4] (FACS analysis), the “CD34+ cell population compared to DMSO treated control cells” value is reported as “able to expand CD34+ cell population”. In addition, in series [4] (FIG. 4A, 4B bottom panels), the “CD34+CD45RA− cells vs SR1 or control cultures” value is given as “more numerous”. For the same compound, in series [5] (cells cultured ten days, outcome of 50,000 and 500,000 cells, 13 week post-transplantation), the “human hematopoietic engraftment (human CD45+ cells in BM)” value is listed as “superior to SR1; also recorded: engrafted better than that of DMSO”. Moreover, in series [5] (setting [9]), the “engraftment of NSG mice (human CD45)” value was “able to engraft NSG mice”; the “reconstitution of human myeloid and lymphoid compartments in bone marrow” value is “positive for human CD33+ and CD19+”. The “aryl hydrocarbon receptor (AhR) antagonism” value in series [6] is given as “not being aryl hydrocarbon receptor (AhR) antagonists”. The “expansion of MNCs including CD34+ cells” value in series [6] (7-day incubation) is “promote the expansion of MNCs including CD34+ cells”. In series [7], the “increase in multilineage GEMM colonies compared to control cells” value was found to be 10 fold and the “increase in multilineage GEMM colonies over input cells” value was found to be 5 fold. Moreover, in series [8] (10-day ex vivo culture, 500 nM), the “expansion of MNCs” value is on record as “more than 7 fold”, the “increase in CD34+ cells over input values (day 0)” value is listed as “more than 5 fold”, the “increase in CD34+ cells over the values determined for vehicle” value is approximately 4 fold and the “numbers of CD34+CD45RA− compared to input” value was determined as 7 fold. The “numbers of CD34+CD45RA− compared to vehicle” value in series [8] (10-day ex vivo culture, 500 nM) is approximately 3 fold. For the same compound, the “expression of CD34+CD45RA− population” value in series [8] (after 10 days of ex vivo culture, vehicle 4.7±0.4%) is recorded as 24.8±0.9%. Further, the “level of CD34 expression” value in series [8] (after 10 days of ex vivo culture, vehicle 22.8±0.9%) was 65.8±5.5%.
